Experimental data as given in patent publication EP0840727B1, “3-HYDROXY-2(1H)-[…] AGENTS” (priority 1995, dated 1997).
Marks after values point to notes of the source that are not given here.

Key:
[1] = Promoting excretion of 238Pu(IV) in mice by injected ligands; type: in vivo; conditions: for percent of injected ^238Pu ± SD at 24 h, tissues: liver / percent of injected ^238Pu ± SD at 24 h, tissues: skeleton / percent of injected ^238Pu ± SD at 24 h, tissues: soft tissue / percent of injected ^238Pu ± SD at 24 h, whole body / percent of injected ^238Pu at 24 h, excreta: feces and GI contents / percent of injected ^238Pu at 24 h, excreta: urine 0-24 h / percent of injected ^238Pu at 24 h, tissues: kidneys: ligand 30 µmol kg^-1 ip at 1 h after iv ^238Pu(IV) citrate, kill at 24 h; for percent of injected ^238Pu at 24 h, excreta: feces and GI contents / percent of injected ^238Pu at 24 h, excreta: urine 0-24 h / percent of injected ^238Pu at 24 h, tissues: kidneys: pooled samples
Description: Animal studies were completed using methods detailed in Radiation Protection Dosimetry, in press, P. W. Durbin et al., "In Vivo Chelation of Am(III), Pu(IV), Np(V) and U(VI) in Mice by TREN-(Me-3,2-HOPO)"; Radiation Protection Dosimetry, 17, No. 1, 1989, p. 351, P. W. Durbin et al., "Removal of ^238Pu(IV) from Mice by Polycatechoylate, -Hydroxamate or -Hydroxypyridinonate Ligands"; Radiation Research, 99, 1984, p. 85, P. W. Durbin et al., "Specific Sequestering Agents for the Actinides ..."; Radiation Research, 99, 1984, p. 106, P. W. Durbin et al., "Removal of Pu and Am from Beagles and Mice ..."; Radiation Research, 81, 1980, p. 170, R. D. Lloyd et al., and P. W. Durbin et al., "Specific Sequestering Agents for the Actinides ...". The foregoing articles are hereby incorporated by reference.
Radionuclides used in the animal studies came from a variety of sources. However, they can be purchased commercially. The ^238Pu(IV) citrate and ^241Am(III) citrate solutions were prepared for animal injection by 8- to 10-fold dilution with 0.14M NaCl (pH 4) of concentrated stock solutions (0.08M sodium citrate buffer) that had been held in frozen storage at Lawrence Berkeley Laboratory (hereinafter LBL) for several years. [The ^238Pu(IV) was originally obtained from D. R. Atherton at the University of Utah Radiobiology Laboratory, Salt Lake City. The ^241Am(III) solution had been obtained many years earlier from the LBL Actinide Chemistry group.]
The novel chelating agents of the present invention and comparative compounds were tested for their effectiveness in promoting excretion ^238Pu(IV) in nice by injected ligands as follows. Mice, in groups of five, each received an intravenous injection of 1850 Bq ^238Pu(IV) in 0.2 mL of citrate buffer. One hour later, 30 µmol/kg of ligand was injected intraperitoneally in 0.5 mL of saline. The mice were killed 24 hours after the Pu injection, frozen, and dissected after partial thawing. The ^238Pu in skeleton, soft tissues, and separated excreta was determined by counting the ^234U L x-rays. Results of removal of ^238Pu(IV) from mice by injected ligands are summarized in Table 3, which also includes data for CaNa3-DTPA and other reference ligands and the Pu-injected controls. […] While the case of multidente 1,2-HOPO and catechoylamide chelating agents, octadentates are always better chelating agents than the corresponding hexadentates and tetradentates.

[2] = In vivo acute toxicity test of injected ligands in mice
Experimental: The test of acute toxicity of novel and comparative ligands was carried out as follows. Groups of five mice were each given a single i.p. injection of […] of ligand and a day for 10 days or given two i.p. injections of […] in 8 hours. The ligand was dissolved in 0.5 to 1.0 ml of saline at pH 7 to 8. After a period of observation, the mice were killed; selected tissues were removed and fixed for histopathological examination; and unusual findings at autopsy were recorded. […]

[3] = protocol IB, 100 µmol kg^-1, study length 5 d
[4] = protocol I, 100 µmol kg^-1 x 10 daily i.p., study length 11 d
[5] = protocol I, 100 µmol kg^-1 x 10 daily i.p., study length 21 d
[6] = protocol II, 500 µmol kg^-1 x 2 in 8 h, study length 8 d
[7] = protocol IA, 100 µmol kg^-1 x 2 daily, study length 6 d, data for two moribund mice autopsied on d 3

SMILES	percent of injected ^238Pu ± SD at 24 h, tissues: liver [1]	percent of injected ^238Pu ± SD at 24 h, tissues: skeleton [1]	percent of injected ^238Pu ± SD at 24 h, tissues: soft tissue [1]	percent of injected ^238Pu ± SD at 24 h, whole body [1]	percent of injected ^238Pu at 24 h, excreta: feces and GI contents [1]	percent of injected ^238Pu at 24 h, excreta: urine 0-24 h [1]	percent of injected ^238Pu at 24 h, tissues: kidneys [1]	further results
Cn1ccc(C(=O)NCCCCNC(=O)c2ccn(C)c(=O)c2O)c(O)c1=O [4-LI-Me-3,2-HOPO]	3.7 ± 1.5^d percent of injected ^238Pu	11 ± 1.7% of injected ^238Pu	1.9 ± 0.5% of injected ^238Pu	17 ± 2.4^d percent of injected ^238Pu	63% of injected ^238Pu	19.4% of injected ^238Pu	0.4% of injected ^238Pu	Pu removal (in words) ([1]; injected ligands, 30 µmol/kg intraperitoneally one hour after ^238Pu(IV)): as effective or more effective than the hexadentate and octadentate chelating agents; no. of survivors [2, 3]: 0; percent control mean + SD: body weight [2, 3]: 85 ± 8 percent control; percent control mean + SD: kidney weight [2, 3]: 190 ± 63 percent control; percent control mean + SD: plasma urea N [2, 3]: >2000 percent control
Cn1ccc(C(=O)NCCCN(CCCNC(=O)c2ccn(C)c(=O)c2O)CCCNC(=O)c2ccn(C)c(=O)c2O)c(O)c1=O [TRPN-Me-3,2-HOPO]	17 ± 5.0% of injected ^238Pu	14 ± 3.2% of injected ^238Pu	2.0 ± 1.1% of injected ^238Pu	33 ± 5.3% of injected ^238Pu	11.5% of injected ^238Pu	55% of injected ^238Pu		
Cn1ccc(C(=O)NCCN(CCNC(=O)c2ccn(C)c(=O)c2O)CCN(CC(=O)O)CC(=O)O)c(O)c1=O [TREN-bis(Me-3,2-HOPO)-bis acetic acid]	6.6 ± 2.2^d percent of injected ^238Pu	20 ± 1.7% of injected ^238Pu	2.7 ± 0.8% of injected ^238Pu	30 ± 3.6% of injected ^238Pu	34.6% of injected ^238Pu	8.7% of injected ^238Pu	0.5% of injected ^238Pu	
Cc1c(CNC(=O)c2ccn(C)c(=O)c2O)c(C)c(CNC(=O)c2ccn(C)c(=O)c2O)c(C)c1CNC(=O)c1ccn(C)c(=O)c1O [ME-Me-3,2-HOPO]	6.1 ± 4.9^d percent of injected ^238Pu	12 ± 1.8% of injected ^238Pu	3.0 ± 2.0% of injected ^238Pu	22 ± 8.5^d percent of injected ^238Pu	70.1% of injected ^238Pu	33.5% of injected ^238Pu	0.9% of injected ^238Pu	
Cn1ccc(C(=O)NCCN(CCNC(=O)c2ccn(C)c(=O)c2O)CCN(CCNC(=O)c2ccn(C)c(=O)c2O)CCNC(=O)c2ccn(C)c(=O)c2O)c(O)c1=O [H(2,2)-Me-3,2-HOPO, N,N,N',N'-tetrakis[(3-hydroxyl-1-methyl-2-oxo-1,2-dihydropyridin-4-yl)carboxamido-ethyl]-ethylenediamine]	3.8 ± 1.1^d percent of injected ^238Pu	11 ± 1.7% of injected ^238Pu	2.8 ± 1.6% of injected ^238Pu	19 ± 2.9^d percent of injected ^238Pu	45.3% of injected ^238Pu	36% of injected ^238Pu	1.3% of injected ^238Pu	no. of survivors [2, 4]: 5; percent control mean + SD: body weight [2, 4]: 92 ± 6 percent control; percent control mean + SD: plasma urea N [2, 4]: 223 ± 28 percent control; no. of survivors [2, 5]: 5; percent control mean + SD: body weight [2, 5]: 87 ± 9 percent control; percent control mean + SD: plasma urea N [2, 5]: 225 ± 188 percent control; no. of survivors [2, 6]: 3; percent control mean + SD: body weight [2, 6]: 94 ± 6 percent control; percent control mean + SD: plasma urea N [2, 6]: 169 ± 10 percent control
Cn1ccc(C(=O)NCCCNC(=O)c2ccn(C)c(=O)c2O)c(O)c1=O [3-LI-Me-3,2-HOPO, 1,3-bis[(3-hydroxy-1-methyl-2-oxo-1,2-dihydropyridin-4yl)carboxamido]propane]	9.5 ± 4.9^d percent of injected ^238Pu	14 ± 1.9% of injected ^238Pu	2.6 ± 0.4% of injected ^238Pu	27 ± 5.2% of injected ^238Pu	41.6% of injected ^238Pu	32% of injected ^238Pu	0.5% of injected ^238Pu	no. of survivors ([2]; protocol IA, 100 µmol kg^-1 x 2 daily, study length 6 d): 0; percent control mean + SD: body weight [2, 7]: 89 ± 4 percent control; percent control mean + SD: kidney weight [2, 7]: 222 ± 29 percent control; percent control mean + SD: plasma urea N [2, 7]: >1800 percent control
Cn1ccc(C(=O)NCCN(CCCN(CCNC(=O)c2ccn(C)c(=O)c2O)CCNC(=O)c2ccn(C)c(=O)c2O)CCNC(=O)c2ccn(C)c(=O)c2O)c(O)c1=O [H(3,2)-Me-3,2-HOPO, N,N,N',N'-tetrakis[(3-hydroxy-1-methyl-2-oxo-1,2-dihydropyridin-4-yl)carboxamido-ethyl]-propylenediamine]	14 ± 6.1% of injected ^238Pu	10 ± 2.0% of injected ^238Pu	2.4 ± 0.3^d percent of injected ^238Pu	28 ± 4.8% of injected ^238Pu	52.1% of injected ^238Pu	19.5% of injected ^238Pu	1.2% of injected ^238Pu	
Cn1ccc(C(=O)NCCN(CCCCN(CCNC(=O)c2ccn(C)c(=O)c2O)CCNC(=O)c2ccn(C)c(=O)c2O)CCNC(=O)c2ccn(C)c(=O)c2O)c(O)c1=O [H(4,2)-Me-3,2-HOPO, N,N,N',N'-tetrakis[(3-hydroxy-1-methyl-2-oxo-1,2-dihydropyridin-4-yl)carboxamido-ethyl]-butylenediamine]	29 ± 6.1% of injected ^238Pu	12 ± 2.9% of injected ^238Pu	1.9 ± 1.0% of injected ^238Pu	46 ± 8.5% of injected ^238Pu	26.8% of injected ^238Pu	28% of injected ^238Pu	1.8% of injected ^238Pu	
